Source: patent publication US20220251036A1, “DIFLUOROHALOALLYLAMINE SULFONE DERIVATIVE INHIBITORS OF LYSYL OXIDASES, METHODS OF PREPARATION, AND USES THEREOF” (PHARMAXIS LTD., priority 2019, published 2022)

Experiments:
scars = assay: Excision injury model in pigs; format: in vivo; settings: daily for 12 weeks
Protocol: Eight full thickness excisions (5×2 cm^2) were made on 5 female juvenile pigs (each weighing 18-20 kg) for a total of 40 injury sites. The entire epidermis and dermal layers of skin were removed by a plastic surgeon in one operation under anaesthesia leaving excisions approximately 5-8 mm in depth. Wounds were dressed and anti-anxiety jackets (Thundershirt; RSPCA) provided to cover wounds. Analgesia was given—buprenorphine injection and fentanyl patch (50 μg/hr) for 10 days, post-surgery—and animals were allowed to recover. The dressings were changed at regular intervals to protect the wounds and prevent infection. Daily treatment started 14 days post-surgery and continued for 12 weeks. […] The surgeons ranked scars in each set of 4 from best to worst (0-3) and the scores for each scar were added and analysed.

[1] = Ultraviolet (UV) absorbance; format: physicochemical; settings: from 290 nm to 680 nm, Shimadzu LCMS 2020
Excerpt: Minimising UV light absorption of drugs may avoid risk of phototoxicity and photoallergy. For induction of phototoxicity and/or photoallergy, a chemical must absorb light within the range of natural sunlight (290 to 700 nm). Therefore, compounds with no absorbance across the natural sunlight spectrum are advantageous.

For NC/C=C(\F)C(F)(F)S(=O)(=O)c1ccccc1 [Compound 1, (Z)-3,4,4-trifluoro-4-(phenylsulfonyl)but-2-en-1-amine], the scar appearance (scars; pigs, 0, 0.5, 1.5 and 3% oil in water cream) was “substantial, dose-dependent improvement”, the “scar visible versus control scars” value (scars; pigs, 3% oil in water cream) was “significantly less scar visible” and the UV absorbance [1] was “no absorbance”.
